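Cultured in 96-well plates, cells were exposed to test compound for 48 hours across five concentrations. GI50: concentration for 50% inhibition of growth. At the TGI there is no net growth.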 Where a SMILES comes first, the peptide text is derived from it. [ ]: non-standard residue; d: D form. The star is where a group is joined. Decanoyl = CCCCCCCCCC(=O)*; Leu(ol) = CC(C)C[C@H](N)CO; Iva = CC[C@](C)(N)C(=O)O; Aib = CC(C)(N)C(=O)O
tested on: MDA-MB-468 breast; experiment: NCI anticancer screen, dose series, 48 h

Row | SMILES | GI50 [µM] | TGI [µM]
1 | CC(=O)O[C@H]1[C@@H]2OC(=O)C(CSc3ccccc3)[C@@H]2C[C@H]2O[C@]2(C)CC/C=C(\C)CCC[C@@H]1C (some centres undefined) | 1.46 | 3.62
2 | CCOC(=O)c1ccc(NC2=C(Cl)C(=O)c3nc(C)ccc3C2=O)cc1 | 1.66 | 3.54
3 | CCCCCCCCCC(=O)N[C@@](C)(CC)C(=O)N1CCC[C@H]1C(=O)N[C@@H](CC(C)C)C(=O)N[C@@](C)(CC)C(=O)N[C@@H](CCC(N)=O)C(=O)N[C@H](CCC(N)=O)C(=O)NC(C)(C)C(=O)NC(C)(C)C(=O)N[C@@H](CCC(N)=O)C(=O)N[C@H](CC(C)C)C(=O)N[C@H](CO)CC(C)C (Decanoyl-[Iva]PL[Iva]Q[dQ][Aib][Aib]Q[dL][Leu(ol)]) | 1.77 | 3.49
4 | CN1CCN(c2ccc(NC(=O)c3cncnc3Nc3ccc(OCc4ccccn4)c(Cl)c3)cc2)CC1 | 3.88 | 9.39
5 | CC([C@H]1CCC2C3CCC4C[C@@H](N)CC[C@]4(C)C3CC[C@@]21C)N(C)C (some centres undefined) | 1.57 | 4.83
6 | O=C1C=CC(=O)N1c1cccc(N2C(=O)C=CC2=O)c1 | 1.88 | 3.99
7 | OCCNc1nc(Nc2ccc(Cl)c(Cl)c2)nc2ccccc12 | 1.83 | 5.3
8 | O=C1/C(=C/c2ccc(Cl)cc2)CCC/C1=C\c1ccc(Cl)cc1 | 3.08 | 9.21
9 | COC(=O)c1ccc(NC2=C(Cl)C(=O)C(C)=C(C)C2=O)cc1 | 1.49 | 3.1
10 | CCOC(=O)C#Cc1c(C(=O)OCC)nnn1Cc1ccc([N+](=O)[O-])cc1 | 1.96 | 4.4
11 | CC1(C)NCCC[C@]2(C)[C@H]3CC[C@@H]4[C@H]5[C@H](C(=O)/C=C/c6ccccn6)CC[C@]5(CO)CC[C@@]4(C)[C@]3(C)CC[C@@H]12 | 2.08 | 4.77
12 | CC1=C(C(=O)Nc2cc(Cl)c3[nH]ncc3c2)C(c2ccc(C(F)(F)F)cc2)CC(=O)N1 (centres undefined) | 8.02 | > 25
13 | CCC(=O)Nc1ccc(C)c(-c2ccc(C(=O)NCC3CC3)cc2)c1 | 14.9 | > 25
14 | Oc1c(Cl)cc(Cl)cc1C(c1cc(Cl)cc(Cl)c1O)C(Cl)(Cl)Cl | 2.17 | 7.63
15 | O=C(O)c1c(=O)cccc2ssc12 | 2.14 | 4.38
16 | Cc1cc2c(C(N)=O)c(N)n(-c3c(C)ccc(O)c3C)c2nc1C | 8.69 | 29.7
17 | CC(=[N-])N1CCC[C@@H](Nc2c3ccccc3nc3ccccc23)C1.[Cl][Pt].[NH-]CCC[NH-] | 0.128 | 0.901
18 | N#C/C(=C\c1ccc(Br)cc1)n1nnc2cc(Cl)c(Cl)cc21 | 2.15 | 5.13
19 | Nc1ccc(-c2cccs2)cc1NC(=O)c1ccc(CCCC(=O)Nc2ccc(C3CC3N)cc2)cc1 (centres undefined) | 1.9 | 4.37
20 | C/C(O)=C(\C#N)C(=O)Nc1ccc(C(F)(F)F)cc1 | 37.2 | > 100
21 | CCc1ccc(C(=Nc2ccc(N(C)C(=O)CN3CCN(C)CC3)cc2)c2c(O)[nH]c3ccc(C(=O)OC)cc23)cc1 | 0.73 | 2.35
22 | O=C(N/N=C/c1ccc(O)cc1O)c1cccc(Nc2ccnc(C(F)(F)F)c2)c1 | 0.626 | > 58.3
